A short description of the series: physchem.

For 44 molecules, chromatographic logP results are on record in patent US7629294B2, “Pyrazolopyrimidines” (Bayer CropScience LP, priority 2004, dated 2009).

The chromatographic logP is lipophilicity estimated from chromatographic retention. A low value points to a more hydrophilic compound.

Regarding `Cc1ccsc1-c1c(Cl)nc2c(-c3nsc(=O)o3)cnn2c1NC(C)C(C)C` (stereo not drawn) [Example XXVI, 5-[5-Chloro-7-(1,2-dimethylpropylamino)-6-(3-methylthiophen-2-yl)pyrazolo[1,5-α]pyrimidin-3-yl]-[1,3,4]oxathiazol-2-one], the chromatographic logP (logPs) stood at 5.

For `CC(C)[C@@H](C)Nc1c(-c2ccc(C#N)cc2Cl)c(Cl)nc2c(C(=O)O)cnn12` (single isomer, unassigned) [Example XIX], the chromatographic logP (logP) was 2.9.

With `C[C@@H](Nc1c(-c2ccc(F)cc2Cl)c(Cl)nc2c(-c3nsc(=O)o3)cnn12)C(C)(C)C` [Example VI], where the note is “logP”, the chromatographic logP was 5.38.

In the case of `Oc1nc2c(-c3ccccn3)cnn2c(O)c1-c1ccc(F)cc1Cl` [Example XXXII, 6-(2-chloro-4-fluorophenyl)-3-pyridin-2-ylpyrazolo[1,5-a]pyrimidine-5,7-diol], the chromatographic logP (logPs) was 0.91.

For `CC(Nc1c(-c2ccc(F)cc2Cl)c(Cl)nc2c(Br)cnn12)C(C)(C)C` (centres unmarked) [3-bromo-5-chloro-6-(2-chloro-4-fluorophenyl)-N-(1,2,2-trimethylpropyl)pyrazolo[1,5-a]pyrimidin-7-amine], the chromatographic logP (logP) came to 5.78.

Turning to `C[C@@H](Nc1c(-c2ccc(F)cc2Cl)c(Cl)nc2c(C(N)=O)cnn12)C(C)(C)C`, for the setting “logP”, the chromatographic logP was 3.88.

Under “logP”, `C[C@@H](Nc1c(-c2ccc(F)cc2Cl)c(Cl)nc2c(C3=NOCCN3)cnn12)C(C)(C)C` [Example IX] yielded a chromatographic logP of 3.23.

`CC(C)[C@@H](C)Nc1c(-c2ccc(C(N)=O)cc2Cl)c(Cl)nc2c(C(=O)O)cnn12` (single isomer, unassigned) [Example XX]: the chromatographic logP (logP) was 1.96.

Regarding `C[C@H](Nc1c(C2CCCC2)c(Cl)nc2c(C(=O)O)cnn12)C(F)(F)F` [Example XVII, 5-chloro-6-cyclopentyl-7-[(S)-3-trifluoroisopropylamino]pyrazolo[1,5-a]pyrimidine-3-carboxylic acid], under “logP”, the chromatographic logP was determined as 3.06.

As for `CNS(=O)(=O)c1cnn2c(NC(C)C(C)(C)C)c(-c3ccc(F)cc3Cl)c(Cl)nc12` (centres unmarked) [N-methyl-5-chloro-6-(2-chloro-4-fluorophenyl)-7-(1,2,2-trimethylpropylamino)pyrazolo[1,5-a]pyrimidine-3-sulphonamide], where the note is “logPs”, the chromatographic logP was determined as 4.09.

For the setting “logPs”, `CC(C)[C@@H](C)Nc1c(-c2c(F)cccc2Cl)c(Cl)nc2c(C(=O)O)cnn12` [Example V, 5-chloro-6-(2-chloro-6-fluorophenyl)-7-{[(1R)-1,2-dimethylpropyl]amino}pyrazolo[1,5-a]pyrimidine-3-carboxylic acid] displayed a chromatographic logP of 3.24.

On to `COC(=O)c1cnn2c(N[C@H](C)C(C)C)c(-c3c(F)cccc3Cl)c(Cl)nc12` [methyl 5-chloro-6-(2-chloro-6-fluorophenyl)-7-{[(1R)-1,2-dimethylpropyl]amino}pyrazolo[1,5-a]pyrimidine-3-carboxylate], for which, where the note is “logPs”, the chromatographic logP is 4.12.

`C[C@@H](Nc1c(-c2ccc(F)cc2Cl)c(Cl)nc2c(C(=O)NO)cnn12)C(C)(C)C` registered a chromatographic logP (logP) of 3.51.

Take `COC(=O)c1cnn2c(N[C@@H](C)C(C)C)c(-c3ccc(C#N)cc3Cl)c(Cl)nc12` (single isomer, unassigned) [drawing 53 atropisomer A]: the chromatographic logP (logP) came out at 3.72.

Where the note is “logPs”, `Cc1nnc(-c2cnn3c(O)c(-c4ccc(F)cc4Cl)c(O)nc23)o1` [Example XXX, 6-(2-Chloro-4-fluorophenyl)-3-(5-methyl-[1,3,4]oxadiazol-2-yl)pyrazolo[1,5-a]pyrimidine-5,7-diol] registered a chromatographic logP of 0.67.

Consider `C[C@@H](Nc1c(-c2ccc(F)cc2Cl)c(Cl)nc2c(C(N)=NO)cnn12)C(C)(C)C`, for which the chromatographic logP (logP) turned out to be 2.47.

`CCC(C)c1c(Cl)nc2c(C(=O)OC)cnn2c1N[C@@H](C)C(C)C` (stereo partly drawn) [methyl 5-chloro-6-(sec-butyl)-7-[(S)-3-methyl-2-butylamino]pyrazolo[1,5-a]pyrimidine-3-carboxylate] came in with a chromatographic logP (logP) of 4.49.

Molecule `COC(=O)C(C(=O)OC)c1ccc(C#N)cc1Cl` [dimethyl(2-chloro-4-cyanophenyl)malonate] yielded a chromatographic logP (logP) of 2.34.

For `CCC(C)c1c(Cl)nc2c(C(=O)O)cnn2c1N[C@@H](C)C(F)(F)F` (stereo partly drawn) [Example XII, 5-chloro-6-(sec-butyl)-7-[(S)-3-trifluoroisopropylamino]pyrazolo[1,5-a]pyrimidine-3-carboxylic acid], the chromatographic logP (logP) came to 2.88.

In turn, `CC(C)C(C)Nc1c(-c2ccc(F)cc2Cl)c(Cl)nc2c(-c3ccccn3)cnn12` (centres unmarked) [compound 538] gave a chromatographic logP (logP) of 3.54.

The molecule `C[C@H](Nc1c(-c2ccc(C#N)cc2Cl)c(Cl)nc2c(C(=O)O)cnn12)C(F)(F)F` (single isomer, unassigned) [Example XXII] displayed a chromatographic logP (logP) of 2.63.

In the case of `CC(C)C(C)Nc1c(-c2ccc(F)cc2Cl)c(Cl)nc2c(-c3ccccn3)cnn12` (centres unmarked) [XXXVIII, [5-chloro-6-(2-chloro-4-fluorophenyl)-3-pyridin-2-ylpyrazolo[1,5-a]pyrimidin-7-yl](1,2-dimethylpropyl)amine], the chromatographic logP (logPs) turned out to be 3.54.

The molecule `CC1CCN(c2c(-c3ccc(F)cc3Cl)c(Cl)nc3c(S(=O)(=O)O)cnn23)CC1` [Example III, 5-chloro-6-(2-chloro-4-fluorophenyl)-7-(4-methylpiperidin-1-yl)pyrazolo[2,3-a]pyrimidine-3-sulphonic acid] registered a chromatographic logP (logPs) of 2.48.

`CC(C)NC(=O)c1cnn2c(N[C@H](C)C(C)C)c(-c3c(F)cccc3Cl)c(Cl)nc12` [Example IV, 5-chloro-6-(2-chloro-6-fluorophenyl)-7-{[(1R)-1,2-dimethylpropyl]amino}-N-isopropylpyrazolo[1,5-a]pyrimidine-3-carboxamide] gave a chromatographic logP (logPs) of 4.72.

Take `CC(C)[C@@H](C)Nc1c(C2CCCC2)c(Cl)nc2c(C(=O)O)cnn12` [Example XV, 5-chloro-6-cyclopentyl-7-[(R)-3-methyl-2-butylamino]pyrazolo[1,5-a]pyrimidine-3-carboxylic acid]: under “logP”, the chromatographic logP worked out at 3.7.

On to `CCC(C)c1c(Cl)nc2c(C(=O)OC)cnn2c1Cl` (centres unmarked) [methyl 5,7-dichloro-6-(sec-butyl)-pyrazolo[1,5-a]pyrimidine-3-carboxylate], for which, where the note is “logP”, the chromatographic logP is 3.13.

With `COC(=O)c1cnn2c(N[C@@H](C)C(C)C)c(C3CCCC3)c(Cl)nc12` [methyl 5-chloro-6-cyclopentyl-7-[(S)-3-methyl-2-butylamino]pyrazolo[1,5-a]pyrimidine-3-carboxylate], the chromatographic logP (logP) is 4.72.

With `COc1nc2c(C(=O)O)cnn2c(NC(C)C(C)C)c1-c1sccc1C` (stereo not drawn) [Example XXV, 7-(1,2-dimethylpropylamino)-5-methoxy-6-(3-methylthiophen-2-yl)pyrazolo[1,5-α]pyrimidine-3-carboxylic acid], under “logPs”, the chromatographic logP was 3.65.

The molecule `CC(C)[C@H](C)Nc1c(C2CCCC2)c(Cl)nc2c(C(=O)O)cnn12` [Example XVI] yielded a chromatographic logP (logP) of 3.7.

For the setting “logP”, `COC(=O)c1cnn2c(Cl)c(C3CCCC3)c(Cl)nc12` [methyl 5,7-dichloro-6-cyclopentylpyrazolo[1,5-a]pyrimidine-3-carboxylate] displayed a chromatographic logP of 3.31.

Where the note is “logPs”, `CC(C)C(C)Nc1c(-c2ccc(F)cc2Cl)c(Cl)nc2c(-c3nnc(N)s3)cnn12` (centres unmarked) [Example XXIX] gave a chromatographic logP of 3.57.

For `CC(C)C(C)Nc1c(-c2ccc(F)cc2Cl)c(Cl)nc2c(/C=N/NC(N)=S)cnn12` (centres unmarked) [Thiosemicarbazone of 5-chloro-6-(2-chloro-4-fluorophenyl)-7-(1,2-dimethyl-propylamino)pyrazolo[1,5-a]pyrimidine-3-carbaldehyde], the chromatographic logP (logPs) was found to be 3.75. The chromatographic logP values of the last two molecules are within 0.2 log units of each other.

Consider `CC1CCN(c2c(-c3ccc(F)cc3Cl)c(Cl)nc3c(S(C)(=O)=O)cnn23)CC1` [Example II, 5-chloro-6-(2-chloro-4-fluorophenyl)-7-(4-methylpiperidin-1-yl)-3-methylsulphonyl-pyrazolo[2,3-a]pyrimidine], for which the chromatographic logP (logPs) turned out to be 4.2.

Consider `N#Cc1ccc(Br)c(Cl)c1` [3-chloro-4-bromobenzonitrile], for which the chromatographic logP (logP) was found to be 2.82.

Regarding `COC(=O)c1cnn2c(N[C@H](C)C(C)C)c(-c3ccc(C#N)cc3Cl)c(Cl)nc12` (single isomer, unassigned) [drawing 52 atropisomer A], the chromatographic logP (logP) stood at 3.64.

For `Cc1nnc(-c2cnn3c(O)c(-c4ccc(F)cc4Cl)c(O)nc23)[nH]1` [Example XXXI, 6-(2-chloro-4-fluorophenyl)-3-(5-methyl-[1,3,4]triazol-2-yl)pyrazolo[1,5-a]pyrimidine-5,7-diol], the chromatographic logP (logPs) came out at 0.51.

In turn, `Cc1nnc(-c2cnn3c(NC(C)C(C)C)c(-c4ccc(F)cc4Cl)c(Cl)nc23)o1` (centres unmarked) [Example XXXVI] returned a chromatographic logP (logPs) of 3.94.

The molecule `CCC(C)c1c(Cl)nc2c(C(=O)OC)cnn2c1N[C@H](C)C(C)C` (stereo partly drawn) [methyl 5-chloro-6-(sec-butyl)-7-[(R)-3-methyl-2-butylamino][1,5-a]pyrimidine-3-carboxylate] showed a chromatographic logP (logP) of 4.49.

In the case of `Cc1ccsc1-c1c(Cl)nc2c(C(N)=O)cnn2c1NC(C)C(C)C` (stereo not drawn) [5-chloro-7-(1,2-dimethylpropylamino)-6-(3-methylthiophen-2-yl)pyrazolo[1,5-α]pyrimidine-3-carboxamide], under “logPs”, the chromatographic logP turned out to be 3.5.

`COC(=O)c1cnn2c(O)c(-c3c(F)cccc3Cl)c(O)nc12` [methyl 6-(2-chloro-6-fluorophenyl)-5,7-dihydroxypyrazolo[1,5-a]pyrimidine-3-carboxylate] yielded a chromatographic logP (logPs) of 0.55.

Regarding `C[C@@H](Nc1c(-c2ccc(F)cc2Cl)c(Cl)nc2c(-c3ncco3)cnn12)C(C)(C)C` [Example VII], under “logP”, the chromatographic logP is 4.72.

Consider `COC(=O)c1cnn2c(N[C@@H](C)C(F)(F)F)c(-c3ccc(C#N)cc3Cl)c(Cl)nc12` (single isomer, unassigned) [drawing 54 atropisomer A], for which the chromatographic logP (logP) was determined as 3.32.

As for `COC(=O)c1cnn2c(Cl)c(-c3ccc(C#N)cc3Cl)c(Cl)nc12` [methyl 5,7-dichloro-6-(2-chloro-4-cyanophenyl)pyrazolo[1,5-a]pyrimidine-3-carboxylate], the chromatographic logP (logP) turned out to be 2.85.

Molecule `C[C@@H](Nc1c(-c2ccc(F)cc2Cl)c(Cl)nc2c(C3=NOCCO3)cnn12)C(C)(C)C` [Example VIII] showed a chromatographic logP (logP) of 4.43.
